Reference: patent publication US20240108641A1, “COMPOSITIONS FOR ORAL ADMINISTRATION OF ZOLEDRONIC ACID OR RELATED COMPOUNDS FOR TREATING DISEASE” (ANTECIP BIOVENTURES II LLC, priority 2012, published 2024)

How the values were obtained:
[1] = format: physicochemical; settings: pH 5.5
Experimental: One gram of the test compound was measured into a beaker. […] The procedure was continued until complete dissolution was achieved. […] The procedure was performed for each compound.

in vivo = settings: dog, po, 150 mg
Experimental: Tablets were manufactured containing either pure zoledronic acid or the disodium salt of zoledronic acid (disodium zoledronate tetrahydrate). Both types of tablets contained 50 mg of zoledronic acid equivalent per tablet. Identical excipients were used in both types of tablets, with amounts adjusted to account for the difference in molecular weights between the acid and the disodium salt.
Beagle dogs were orally administered tablets containing 150 mg zoledronic acid equivalent either in the form of disodium zoledronate (Group 1) or pure zoledronic acid (Group 2). Each animal was given three 50 mg equivalent tablets (150 mg total), which were administered together. The animal's oral cavity was wetted with water before placing the tablets on the back of the animal's tongue. Animals were fasted before and after dosing. Animals were 6 to 9 months of age and weighed 6 to 10 kg on the day of dosing. There were three dogs per group.
Serial blood samples were collected from each animal by venipuncture of the jugular vein at various points after dosing for measurement of plasma concentrations of zoledronic acid. Blood samples were collected into chilled tubes containing K2EDTA as the anticoagulant. Samples were then centrifuged at approximately 3000 rpm at +4° C. for 10 minutes for plasma derivation. Plasma concentrations of zoledronic acid were measured using an LC/MS/MS method.

With O.O.O.O.O=P([O-])(O)C(O)(Cn1ccnc1)P(=O)([O-])O.[Na+].[Na+] [disodium zoledronate tetrahydrate] the “aqueous solubility relative to zoledronic acid” value [1] was “approximately 50 times” and the “average AUC0-∞” value (in vivo) was 4073 ng·h/mL.
